Measurements published in the Kinase Knowledgebase extract (Sharma et al. 2016).
Values after ≈ are worked out from the molar mass of the structure shown.

Key:
EGFR (human) [1] = molecular target: EGFR (human) (UniProt P00533); conditions: sw 620
EGFR (human) [2] = molecular target: EGFR (human) (UniProt P00533); conditions: mda-mb-435
EGFR (human) [3] = molecular target: EGFR (human) (UniProt P00533); conditions: sk-br-3
EGFR (human) [4] = molecular target: EGFR (human) (UniProt P00533); conditions: a431
EGFR (human) [5] = molecular target: EGFR (human) (UniProt P00533); conditions: for inhibition: ht-29, concentration not given here; for IC50: ht-29

Chain of EGFR (human) (P00533 whole entry, looked up): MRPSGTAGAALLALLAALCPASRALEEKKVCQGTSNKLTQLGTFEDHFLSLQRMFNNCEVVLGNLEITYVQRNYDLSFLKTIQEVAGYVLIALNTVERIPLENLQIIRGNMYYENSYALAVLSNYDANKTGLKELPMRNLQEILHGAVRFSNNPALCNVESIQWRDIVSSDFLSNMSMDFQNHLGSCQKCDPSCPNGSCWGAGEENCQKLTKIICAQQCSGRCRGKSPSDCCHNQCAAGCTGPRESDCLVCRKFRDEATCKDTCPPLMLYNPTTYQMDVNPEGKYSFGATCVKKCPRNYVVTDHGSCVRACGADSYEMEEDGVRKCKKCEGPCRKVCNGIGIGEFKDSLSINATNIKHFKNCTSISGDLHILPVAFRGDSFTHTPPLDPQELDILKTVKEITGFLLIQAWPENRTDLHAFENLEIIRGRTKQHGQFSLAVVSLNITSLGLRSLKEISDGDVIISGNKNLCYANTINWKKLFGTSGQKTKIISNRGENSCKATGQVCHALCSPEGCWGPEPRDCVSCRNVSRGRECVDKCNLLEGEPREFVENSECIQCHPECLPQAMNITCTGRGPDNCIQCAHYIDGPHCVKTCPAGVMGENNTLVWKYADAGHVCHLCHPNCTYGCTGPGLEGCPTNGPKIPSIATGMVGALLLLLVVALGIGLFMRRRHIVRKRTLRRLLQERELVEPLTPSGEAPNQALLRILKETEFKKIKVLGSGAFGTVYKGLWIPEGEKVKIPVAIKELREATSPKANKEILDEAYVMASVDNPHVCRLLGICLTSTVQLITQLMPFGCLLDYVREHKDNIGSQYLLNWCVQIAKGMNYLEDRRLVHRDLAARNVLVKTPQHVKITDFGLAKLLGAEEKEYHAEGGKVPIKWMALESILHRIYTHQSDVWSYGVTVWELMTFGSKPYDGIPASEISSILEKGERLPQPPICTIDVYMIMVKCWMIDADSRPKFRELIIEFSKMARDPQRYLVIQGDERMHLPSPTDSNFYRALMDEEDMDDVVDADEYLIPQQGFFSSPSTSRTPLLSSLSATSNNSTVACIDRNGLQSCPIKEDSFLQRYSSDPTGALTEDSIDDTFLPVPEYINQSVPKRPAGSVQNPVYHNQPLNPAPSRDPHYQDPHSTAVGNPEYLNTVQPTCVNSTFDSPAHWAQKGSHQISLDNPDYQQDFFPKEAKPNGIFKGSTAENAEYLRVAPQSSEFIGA

Compound | IC50 (EGFR (human) [1]) [µg/mL] | IC50 (EGFR (human) [2]) [µg/mL] | IC50 (EGFR (human) [3]) [µg/mL] | IC50 (EGFR (human) [4]) [µg/mL] | inhibition (EGFR (human) [5]) [%] | IC50 (EGFR (human) [5]) [µM]
N#Cc1cnc2c(sc3ccc(N)cc32)c1Nc1cccc(Br)c1 | > 5 | > 5 | > 5 | > 5 | – | –
C=CC(=O)Nc1cccc2c1sc1c(Nc3cccc(Br)c3)c(C#N)cnc12 | > 5 | 3.9 (≈ 8.68 µM) | 1.09 (≈ 2.43 µM) | 1.11 (≈ 2.47 µM) | – | –
N#Cc1cnc2cc3nc[nH]c3cc2c1Nc1cccc(Br)c1 | 3.72 (≈ 10.2 µM) | 3.48 (≈ 9.56 µM) | 0.6 (≈ 1.65 µM) | 0.58 (≈ 1.59 µM) | – | –
N#Cc1cnc2cc3nc[nH]c3cc2c1Nc1ccc(Cl)cc1Br | – | – | – | – | 25 | –
N#Cc1cnc2cc3ccccc3cc2c1Nc1ccc(F)c(Cl)c1 | 1.08 (≈ 3.11 µM) | 1.65 (≈ 4.74 µM) | 1.01 (≈ 2.9 µM) | 0.332 (≈ 0.955 µM) | – | –
COc1cc(Nc2c(C#N)cnc3cc4nc[nH]c4cc23)c(Br)cc1Cl | – | – | – | – | 35 | –
COc1ccc(Cl)c(Nc2c(C#N)cnc3cc4nc[nH]c4cc23)c1 | – | – | – | – | 10 | –
N#Cc1cnc2c(sc3ccc([N+](=O)[O-])cc32)c1Nc1ccc(Cl)cc1Cl | 0.67 (≈ 1.61 µM) | 0.46 (≈ 1.11 µM) | 0.59 (≈ 1.42 µM) | 0.41 (≈ 0.987 µM) | – | –
N#Cc1cnc2c(sc3ccccc32)c1Nc1cccc(Br)c1 | > 5 | > 5 | > 5 | > 5 | – | –
N#Cc1cnc2cc3cc(O)c(O)cc3cc2c1Nc1ccc(Cl)cc1Cl | 0.38 (≈ 0.959 µM) | 0.85 (≈ 2.15 µM) | > 5 | 0.58 (≈ 1.46 µM) | – | –
N#Cc1cnc2c(oc3ccccc32)c1Nc1cccc(Br)c1 | > 5 | > 5 | > 5 | > 5 | – | –
C=CC(=O)Nc1ccc2sc3c(Nc4cccc(Br)c4)c(C#N)cnc3c2c1 | 1 (≈ 2.23 µM) | 1.69 (≈ 3.76 µM) | 0.224 (≈ 0.499 µM) | 0.838 (≈ 1.86 µM) | – | –
COc1cc(Nc2c(C#N)cnc3cc4nc[nH]c4cc23)cc(OC)c1OC | – | – | – | – | 0 | –

Results, then the molecule that gave them:

IC50 (EGFR (human) [1]) [µg/mL] | IC50 (EGFR (human) [2]) [µg/mL] | IC50 (EGFR (human) [3]) [µg/mL] | IC50 (EGFR (human) [4]) [µg/mL] | inhibition (EGFR (human) [5]) [%] | IC50 (EGFR (human) [5]) [µM] | Compound
11.6 (≈ 19.5 µM) | 33.5 (≈ 56.3 µM) | 3.5 (≈ 5.88 µM) | 4.7 (≈ 7.9 µM) | – | – | COc1cc2cc3c(Nc4ccc(OCc5ccccc5)c(Cl)c4)c(C#N)cnc3cc2cc1OCCN1CCOCC1
– | – | – | – | – | 9.95 | COc1cc(Nc2c(C#N)cnc3cc4cc(OCCN5CCOCC5)c(OC)cc4cc23)c(Cl)cc1C
– | – | – | – | – | > 10 | COc1cc(Nc2c(C#N)cnc3cc4cc(OCCN5CCOCC5)c(OC)cc4cc23)c(C)cc1Cl
– | – | – | – | – | 8.6 | COc1cc(Nc2c(C#N)cnc3cc4cc(OCCN5CCN(C)CC5)c(OC)cc4cc23)c(C)cc1Cl
– | – | – | – | – | > 10 | CCOc1cc2cc3c(Nc4cc(OC)c(Cl)cc4C)c(C#N)cnc3cc2cc1OCCN1CCOCC1
0.36 (≈ 0.71 µM) | – | 0.04 (≈ 0.0789 µM) | 0.76 (≈ 1.5 µM) | – | – | COc1cc2cc3ncc(C#N)c(Nc4ccc(F)c(Cl)c4)c3cc2cc1OCCN1CCOCC1
